Measurements taken from US20220332699A1 (SAGE THERAPEUTICS, INC., priority 2019, published 2022).

biological target: CYP46A1 (Homo sapiens, UniProt Q9Y6A2); test: CYP46A1 Enzyme Assay 2 (testosterone substrate, HPLC-MS); type: biochemical; settings: read-out: IC50 (CYP46A1 inhibitory activity)
Procedure: Briefly, in a 384-well plate format, 10 μL per well of an enzyme-substrate mixture of CYP46A1 (5 μM final concentration) and Testosterone ([…] final concentration) were dispensed to wells containing test compound. For CYP46A1 titration, 5 μL per well of serially diluted CYP46A1 (concentrations including 10 μM, 5 μM, and 2.5 μM) and Testosterone (concentration of […]) were dispensed. For Testosterone titration, 5 μL per well of serially diluted Testosterone (concentrations including 10 μM, 5 μM, and 2.5 μM) and CYP46A1 (concentration of 5 μM) were dispensed. The plates were centrifuged at 1000 rpm for 30 seconds, and then sealed and incubated at 37° C. for 30 minutes. The plate was removed from the incubator, and then 10 μL per well of NADPH-generating system were dispensed to initiate the reaction. The plates were incubated at 37° C. for 15 minutes, added with 80 μL per well of 100% methanol consisting 1 ng/ml diclofenac as internal standard, and then transferred for HPLC-MS.

Chain of CYP46A1 (Q9Y6A2 whole entry): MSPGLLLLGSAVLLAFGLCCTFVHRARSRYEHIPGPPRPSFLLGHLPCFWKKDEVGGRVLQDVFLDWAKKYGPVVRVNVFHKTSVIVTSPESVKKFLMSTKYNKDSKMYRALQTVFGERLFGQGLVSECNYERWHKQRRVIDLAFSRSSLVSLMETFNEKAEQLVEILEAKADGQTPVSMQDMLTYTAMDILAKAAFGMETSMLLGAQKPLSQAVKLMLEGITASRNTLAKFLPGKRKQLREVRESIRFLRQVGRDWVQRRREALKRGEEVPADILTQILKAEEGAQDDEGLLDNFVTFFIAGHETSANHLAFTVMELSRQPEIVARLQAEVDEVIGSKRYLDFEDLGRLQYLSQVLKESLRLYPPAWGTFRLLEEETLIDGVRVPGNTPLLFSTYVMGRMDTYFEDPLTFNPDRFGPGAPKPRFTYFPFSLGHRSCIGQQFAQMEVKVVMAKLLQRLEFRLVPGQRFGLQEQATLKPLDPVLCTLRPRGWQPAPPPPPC

IC50, > 1000 nM:
N#C[C@@]1(Cc2ccc(F)cc2)CCN(C(=O)c2cccnc2-c2ccncn2)C1 [Compound A236, (S)-3-(4-fluorobenzyl)-1-(2-(pyrimidin-4-yl)nicotinoyl)pyrrolidine-3-carbonitrile]

IC50, < 100 nM:
N#CC1(Cc2ccc(F)cc2)CCN(C(=O)c2cc(F)ccc2-c2ccncn2)CC1 [Compound A219, 1-(5-fluoro-2-(pyrimidin-4-yl)benzoyl)-4-(4-fluorobenzyl)piperidine-4-carbonitrile]
N#CC1(Cc2ccc(F)cc2C(F)(F)F)CCN(C(=O)c2cccnc2-c2ccncc2)CC1 [Compound A277, 1-([2,4′-bipyridine]-3-carbonyl)-4-(4-fluoro-2-(trifluoromethyl)benzyl)piperidine-4-carbonitrile]
N#CC1(Cc2ccc(F)cc2)CCN(C(=O)c2cc(Cl)ccc2-c2ccncn2)CC1 [Compound A234, 1-(5-chloro-2-(pyrimidin-4-yl)benzoyl)-4-(4-fluorobenzyl)piperidine-4-carbonitrile]
N#CC1(Cc2ccccc2Cl)CCN(C(=O)c2cccnc2-c2ccncc2)CC1 [Compound A21, 1-([2,4′-bipyridine]-3-carbonyl)-4-(2-chlorobenzyl)piperidine-4-carbonitrile]
N#CC1(Cc2c(F)cc(C(F)(F)F)cc2F)CCN(C(=O)c2cccnc2-c2ccncn2)CC1 [Compound A281, 4-(2,6-difluoro-4-(trifluoromethyl)benzyl)-1-(2-(pyrimidin-4-yl)nicotinoyl)piperidine-4-carbonitrile]
CC(c1cc(F)cc(F)c1)C1(C#N)CCN(C(=O)c2cccnc2-c2ccncn2)CC1 (stereo in doubt) [Compound A258, (R)-4-(1-(3,5-difluorophenyl)ethyl)-1-(2-(pyrimidin-4-yl)nicotinoyl)piperidine-4-carbonitrile]
N#CC1(Cc2cc(F)cc(F)c2)CCN(C(=O)c2cccnc2-c2ccncn2)CC1 [Compound A213, 4-(3,5-difluorobenzyl)-1-(2-(pyrimidin-4-yl)nicotinoyl)piperidine-4-carbonitrile]
CC[C@@H](c1ccc(F)cc1)C1(C#N)CCN(C(=O)c2cccnc2-c2ccncn2)CC1 [Compound A216, (S)-4-(1-(4-fluorophenyl)propyl)-1-(2-(pyrimidin-4-yl)nicotinoyl)piperidine-4-carbonitrile]
C[C@@H]1CN(C(=O)c2cccnc2-c2ccncn2)CC[C@@]1(C#N)Cc1ccc(F)cc1 [Compound A247, (3S,4S)-4-(4-fluorobenzyl)-3-methyl-1-(2-(pyrimidin-4-yl)nicotinoyl)piperidine-4-carbonitrile]
CC(c1cc(F)cc(F)c1)C1(C#N)CCN(C(=O)c2cccnc2-c2ccncc2)CC1 (stereo in doubt) [Compound A259, (S)-1-([2,4′-bipyridine]-3-carbonyl)-4-(1-(3,5-difluorophenyl)ethyl)piperidine-4-carbonitrile]
CC(c1cc(F)cc(F)c1)C1(C#N)CCN(C(=O)c2cccnc2-c2ccncc2)CC1 (stereo in doubt) [Compound A260, (R)-1-([2,4′-bipyridine]-3-carbonyl)-4-(1-(3,5-difluorophenyl)ethyl)piperidine-4-carbonitrile]
N#CC1(Cc2ccc(C(F)(F)F)cc2F)CCN(C(=O)c2cccnc2-c2ccncc2)CC1 [Compound A255, 1-([2,4′-bipyridine]-3-carbonyl)-4-(2-fluoro-4-(trifluoromethyl)benzyl)piperidine-4-carbonitrile]
N#CC1(Cc2ccccc2C2CC2)CCN(C(=O)c2cccnc2-c2ccncn2)CC1 [Compound A214, 4-(2-cyclopropylbenzyl)-1-(2-(pyrimidin-4-yl)nicotinoyl)piperidine-4-carbonitrile]
N#CC1(Cc2c(F)cc(F)cc2F)CCN(C(=O)c2cccnc2-c2ccncn2)CC1 [Compound A263, 1-(2-(pyrimidin-4-yl)nicotinoyl)-4-(2,4,6-trifluorobenzyl)piperidine-4-carbonitrile]
